We go through 6 compounds from patent US20260201008A1, “SECRETIN-DERIVED GLP1R SELECTIVE AGONISTS” (GUBRA A/S, priority 2023, published 2026).

The nature of data set [1]: Fibril formation of crude library peptides (Thioflavin T). It is filed as physicochemical. Details: key: average ThT fluorescence emission at 480 nm (ex 450 nm), raw units. The conditions noted are these: Physical stability of peptides. The method, then:
(§1) Peptides were dissolved in buffers (50 mM sodium acetate at pH 4.0, or 50 mM sodium phosphate at pH 7.0) to 267 μM and incubated for 1-2 hours at room temperature. The samples were then divided into two replicates of 80 μl in a black 384 well plate (μ-clear, Greiner Bio-One) and mixed with Thioflavin T (ThT) to a final concentration of 4 μM. The plate was centrifuged for 2 min at 2000 rpm to remove air bubbles, sealed, and placed in a plate reader (CLARIOstar, BMG). Firstly, turbidity of the samples was measured as the absorbance at 600 nm. Secondly, the plate reader temperature was set to 40° C. and the fluorescence was measured every 10 min for 72 hours by exciting the ThT at 450 nm and measuring the emission at 480 nm. Samples were stressed by shaking the plate at 700 rpm (linear) for five minutes before every measurement, and fibril formation was determined as the average emission for each sample.

Data set [2] can be described thus: Turbidity of crude library peptides (absorbance at 600 nm). Particulars: Physical stability of peptides. It is filed as physicochemical. The method, then: as §1
The target of a further data set is SCTR (Homo sapiens, UniProt P47872). The data set is described as follows: hSCTR potency, cAMP accumulation in CHO-K1 cells stably overexpressing hSCTR. It is filed as cell-based. Details: alternatively Euroscreen ES-712-AF; FAST-0161L; host or cells: CHO-K1. The gist of the method:
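Division-arrested CHO-K1 cells stably expressing hSCTR were plated in DPBS with 0.05% casein and 0.5 mM IBMX, then stimulated with test peptide for 30 min at room temperature. cAMP was read by HTRF after one hour. EC50 came from variable-slope sigmoidal nonlinear regression.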

The target in a further data set is GLP1R (Homo sapiens, UniProt P43220). Briefly: hGLP1R potency, cAMP accumulation in CHO-K1 cells stably overexpressing hGLP1R. The format is cell-based. Also noted: host or cells: CHO-K1. Particulars: for Selectivity: SCTR EC50/GLP1R EC50 ratio. In short, it runs like this: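 Cells were plated in DPBS with 0.05% casein and 0.5 mM IBMX, then stimulated for 30 min at room temperature with test compound. cAMP was read by TR-FRET after one hour. EC50 came from variable-slope sigmoid nonlinear regression; purified peptides ran as 11-point 3-fold series, n=2.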
Chain of GLP1R (P43220 24-463): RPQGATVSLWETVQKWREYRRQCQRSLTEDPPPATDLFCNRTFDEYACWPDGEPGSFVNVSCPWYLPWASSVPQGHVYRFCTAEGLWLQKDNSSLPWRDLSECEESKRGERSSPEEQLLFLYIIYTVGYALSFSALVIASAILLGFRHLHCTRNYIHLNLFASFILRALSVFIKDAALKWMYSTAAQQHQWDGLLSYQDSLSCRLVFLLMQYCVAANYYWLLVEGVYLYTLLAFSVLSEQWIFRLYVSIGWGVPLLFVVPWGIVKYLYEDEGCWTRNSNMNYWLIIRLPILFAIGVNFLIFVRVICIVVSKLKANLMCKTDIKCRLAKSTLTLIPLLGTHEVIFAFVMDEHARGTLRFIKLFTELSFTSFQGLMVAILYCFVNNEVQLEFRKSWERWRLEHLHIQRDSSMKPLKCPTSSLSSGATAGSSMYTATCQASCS

Where [3] appears, read: cAMP accumulation, CHO-K1 cells overexpressing hSCTR, read-out: pEC50 hSCTR (converted).
Setting [4] is: cAMP accumulation, CHO-K1 cells overexpressing hGLP1R, read-out: pEC50 hGLPR1 (converted).

Read-outs that look alike come from different tables or passages of the source. Numbered stars: 1 amine (or outer) side, 2 acyl side, 3 side chain; on linkers, the order of the positions; unused ones are H or OH. Square brackets hold non-standard residues; d marks the D form. Side chains are listed from the residue outwards. Peptide text beside a SMILES is read from it. * marks the point of attachment. C20 diacid = O=C(O)CCCCCCCCCCCCCCCCCCC(=O)*; γGlu = O=C(O)[C@H](CCC(=O)[*:2])N[*:1]; AEEA = NCCOCCOCC(=O)O; Aib = CC(C)(N)C(=O)O

Chain of SCTR (P47872 23-440): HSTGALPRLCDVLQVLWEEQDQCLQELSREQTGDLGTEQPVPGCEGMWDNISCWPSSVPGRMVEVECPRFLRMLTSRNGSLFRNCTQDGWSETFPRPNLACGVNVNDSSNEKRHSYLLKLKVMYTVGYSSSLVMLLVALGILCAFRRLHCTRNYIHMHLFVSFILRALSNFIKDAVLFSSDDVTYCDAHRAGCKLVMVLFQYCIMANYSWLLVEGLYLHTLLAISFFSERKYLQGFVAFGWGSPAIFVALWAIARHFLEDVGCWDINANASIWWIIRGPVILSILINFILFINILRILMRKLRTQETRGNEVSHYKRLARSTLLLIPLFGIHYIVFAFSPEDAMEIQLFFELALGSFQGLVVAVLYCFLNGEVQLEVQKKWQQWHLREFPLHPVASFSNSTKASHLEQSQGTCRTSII

For the compound `CC(C)C[C@H](NC(=O)[C@H](CCC(=O)O)NC(=O)[C@H](CCCCNC(=O)COCCOCCNC(=O)COCCOCCNC(=O)CC[C@H](NC(=O)CCCCCCCCCCCCCCCCCCC(=O)O)C(=O)O)NC(=O)[C@H](CC(C)C)NC(=O)[C@H](CCCNC(=N)N)NC(=O)[C@H](CO)NC(=O)[C@@H](NC(=O)[C@H](CC(=O)O)NC(=O)[C@H](CO)NC(=O)[C@@H](NC(=O)[C@H](Cc1ccccc1)NC(=O)[C@@H](NC(=O)CNC(=O)[C@H](CCC(=O)O)NC(=O)C(C)(C)NC(=O)[C@@H](N)Cc1c[nH]cn1)[C@@H](C)O)[C@@H](C)O)C(C)C)C(=O)N[C@@H](C)C(=O)N[C@@H](C)C(=O)N[C@@H](CCC(N)=O)C(=O)N[C@@H](CCC(N)=O)C(=O)N[C@@H](CCCNC(=N)N)C(=O)N[C@@H](Cc1ccccc1)C(=O)N[C@@H](CC(C)C)C(=O)N[C@@H](CCC(=O)O)C(=O)N[C@@H](Cc1c[nH]cn1)C(=O)N[C@@H](CC(C)C)C(=O)N[C@H](C(N)=O)C(C)C` [compound 3] (H-H[Aib]EGTFTSDVSRLK([AEEA-AEEA-γGlu-C20 diacid])ELAAQQRFLEHLV-NH2), the Fibril formation in data set [1] was 13795. In addition, the “Turbidity (pH 7)” value in data set [2] is reported as 0.08. Besides, the values for the EC50 at SCTR (setting [3]) and on GLP1R (setting [4]) were 79.4 nM and 0.0158 nM, respectively. On GLP1R, the Selectivity worked out at 4851.

In the case of `CC(C)C[C@H](NC(=O)[C@H](Cc1ccccc1)NC(=O)[C@H](CCCNC(=N)N)NC(=O)[C@H](CCC(N)=O)NC(=O)[C@@H](NC(=O)[C@H](C)NC(=O)[C@H](C)NC(=O)[C@@H](NC(=O)[C@H](CCC(=O)O)NC(=O)[C@H](CCCCNC(=O)COCCOCCNC(=O)COCCOCCNC(=O)CC[C@H](NC(=O)CCCCCCCCCCCCCCCCCCC(=O)O)C(=O)O)NC(=O)[C@H](CC(C)C)NC(=O)[C@H](Cc1ccc(O)cc1)NC(=O)[C@H](CO)NC(=O)[C@@H](NC(=O)[C@H](CC(=O)O)NC(=O)[C@H](CO)NC(=O)[C@@H](NC(=O)[C@H](Cc1ccccc1)NC(=O)[C@@H](NC(=O)CNC(=O)[C@H](CCC(=O)O)NC(=O)C(C)(C)NC(=O)[C@@H](N)Cc1c[nH]cn1)[C@@H](C)O)[C@@H](C)O)C(C)C)[C@@H](C)O)[C@@H](C)O)C(=O)N[C@@H](CCC(=O)O)C(=O)N[C@@H](Cc1c[nH]cn1)C(=O)N[C@@H](CC(C)C)C(=O)N[C@H](C(N)=O)C(C)C` [compound 4] (H-H[Aib]EGTFTSDVSYLK([AEEA-AEEA-γGlu-C20 diacid])ETAATQRFLEHLV-NH2), the Fibril formation in data set [1] is given as 32222. Moreover, the “Turbidity (pH 7)” value in data set [2] is listed as 0.08. On SCTR, the EC50 is 100 nM. At GLP1R, the EC50 is 0.00794 nM and the Selectivity came to 13928.

The compound `CC(C)C[C@H](NC(=O)[C@H](Cc1ccccc1)NC(=O)[C@H](CCCNC(=N)N)NC(=O)[C@H](CCC(N)=O)NC(=O)[C@H](CCC(N)=O)NC(=O)[C@H](C)NC(=O)[C@H](C)NC(=O)C(C)(C)NC(=O)[C@H](CCC(=O)O)NC(=O)[C@H](CCCCNC(=O)COCCOCCNC(=O)COCCOCCNC(=O)CC[C@H](NC(=O)CCCCCCCCCCCCCCCCCCC(=O)O)C(=O)O)NC(=O)[C@H](CC(C)C)NC(=O)[C@H](CCC(=O)O)NC(=O)[C@H](CO)NC(=O)[C@@H](NC(=O)[C@H](CC(=O)O)NC(=O)[C@H](CO)NC(=O)[C@@H](NC(=O)[C@H](Cc1ccccc1)NC(=O)[C@@H](NC(=O)CNC(=O)[C@H](CCC(=O)O)NC(=O)C(C)(C)NC(=O)[C@@H](N)Cc1c[nH]cn1)[C@@H](C)O)[C@@H](C)O)C(C)C)C(=O)N[C@@H](CCC(=O)O)C(=O)N[C@@H](Cc1c[nH]cn1)C(=O)N[C@@H](CC(C)C)C(=O)N[C@H](C(N)=O)C(C)C` [compound 5] (H-H[Aib]EGTFTSDVSELK([AEEA-AEEA-γGlu-C20 diacid])E[Aib]AAQQRFLEHLV-NH2) yielded a Fibril formation in data set [1] of 14563. Moreover, the “Turbidity (pH 7)” value in data set [2] was determined as 0.09. In addition, the EC50 at SCTR (setting [3]) was 79.4 nM; on GLP1R (setting [4]) it was 0.0126 nM. Moreover, the Selectivity on GLP1R came to 6907.

Take `CC(C)C[C@H](NC(=O)[C@H](Cc1ccccc1)NC(=O)[C@H](CCCNC(=N)N)NC(=O)[C@H](CCC(N)=O)NC(=O)[C@H](CO)NC(=O)[C@H](C)NC(=O)[C@H](C)NC(=O)[C@H](CCC(=O)O)NC(=O)[C@H](CCC(=O)O)NC(=O)[C@H](CCCCNC(=O)COCCOCCNC(=O)COCCOCCNC(=O)CC[C@H](NC(=O)CCCCCCCCCCCCCCCCCCC(=O)O)C(=O)O)NC(=O)[C@H](CC(C)C)NC(=O)[C@@H](NC(=O)[C@H](CO)NC(=O)[C@@H](NC(=O)[C@H](CC(=O)O)NC(=O)[C@H](CO)NC(=O)[C@@H](NC(=O)[C@H](Cc1ccccc1)NC(=O)[C@@H](NC(=O)CNC(=O)[C@H](CCC(=O)O)NC(=O)C(C)(C)NC(=O)[C@@H](N)Cc1c[nH]cn1)[C@@H](C)O)[C@@H](C)O)C(C)C)[C@@H](C)O)C(=O)N[C@@H](CCC(=O)O)C(=O)N[C@@H](Cc1c[nH]cn1)C(=O)N[C@@H](CC(C)C)C(=O)N[C@H](C(N)=O)C(C)C` [compound 6] (H-H[Aib]EGTFTSDVSTLK([AEEA-AEEA-γGlu-C20 diacid])EEAASQRFLEHLV-NH2): the Fibril formation in data set [1] came out at 6489. The “Turbidity (pH 7)” value in data set [2] is recorded as 0.09. Moreover, the EC50 on SCTR (setting [3]) was 316 nM; at GLP1R (setting [4]) it was 0.0316 nM. For the same compound, the Selectivity on GLP1R was 11820.

`CC(C)C[C@H](NC(=O)[C@H](Cc1ccccc1)NC(=O)[C@H](CCCNC(=N)N)NC(=O)[C@H](CCC(N)=O)NC(=O)C(C)(C)NC(=O)[C@H](C)NC(=O)[C@H](C)NC(=O)C(C)(C)NC(=O)[C@H](CCC(=O)O)NC(=O)[C@H](CCCCNC(=O)COCCOCCNC(=O)COCCOCCNC(=O)CC[C@H](NC(=O)CCCCCCCCCCCCCCCCCCC(=O)O)C(=O)O)NC(=O)[C@H](CC(C)C)NC(=O)[C@H](CCC(=O)O)NC(=O)[C@H](CO)NC(=O)[C@@H](NC(=O)[C@H](CC(=O)O)NC(=O)[C@H](CO)NC(=O)[C@@H](NC(=O)[C@H](Cc1ccccc1)NC(=O)[C@@H](NC(=O)CNC(=O)[C@H](CCC(=O)O)NC(=O)C(C)(C)NC(=O)[C@@H](N)Cc1c[nH]cn1)[C@@H](C)O)[C@@H](C)O)C(C)C)C(=O)N[C@@H](CCC(=O)O)C(=O)N[C@@H](Cc1c[nH]cn1)C(=O)N[C@@H](CC(C)C)C(=O)N[C@H](C(N)=O)C(C)C` [compound 7] (H-H[Aib]EGTFTSDVSELK([AEEA-AEEA-γGlu-C20 diacid])E[Aib]AA[Aib]QRFLEHLV-NH2) came in with a Fibril formation in data set [1] of 10801. Also, the “Turbidity (pH 7)” value in data set [2] is given as 0.08. Besides, the EC50 at SCTR (setting [3]) is 1000 nM; at GLP1R (setting [4]) it was 0.0631 nM. In addition, the Selectivity at GLP1R came out at 18030.

In turn, `CC(C)C[C@H](NC(=O)[C@H](Cc1ccccc1)NC(=O)[C@H](CCCNC(=N)N)NC(=O)[C@H](CCC(N)=O)NC(=O)[C@H](CO)NC(=O)[C@H](C)NC(=O)[C@H](C)NC(=O)[C@H](Cc1ccccc1)NC(=O)[C@H](CCC(=O)O)NC(=O)[C@H](CCCCNC(=O)COCCOCCNC(=O)COCCOCCNC(=O)CC[C@H](NC(=O)CCCCCCCCCCCCCCCCCCC(=O)O)C(=O)O)NC(=O)[C@H](CC(C)C)NC(=O)[C@H](CCC(=O)O)NC(=O)[C@H](CO)NC(=O)[C@@H](NC(=O)[C@H](CC(=O)O)NC(=O)[C@H](CO)NC(=O)[C@@H](NC(=O)[C@H](Cc1ccccc1)NC(=O)[C@@H](NC(=O)CNC(=O)[C@H](CCC(=O)O)NC(=O)C(C)(C)NC(=O)[C@@H](N)Cc1c[nH]cn1)[C@@H](C)O)[C@@H](C)O)C(C)C)C(=O)N[C@@H](CCC(=O)O)C(=O)N[C@@H](Cc1c[nH]cn1)C(=O)N[C@@H](CC(C)C)C(=O)N[C@H](C(N)=O)C(C)C` [compound 8] (H-H[Aib]EGTFTSDVSELK([AEEA-AEEA-γGlu-C20 diacid])EFAASQRFLEHLV-NH2) gave a Fibril formation in data set [1] of 259534. In data set [2], the “Turbidity (pH 7)” value turned out to be 0.09. Also, the EC50 at SCTR (setting [3]) is 1580 nM; on GLP1R (setting [4]), 0.0501 nM. Further, the Selectivity at GLP1R was determined as 30095.
